For this experiment, the target named is T1, TMexD1 (Klebsiella pneumoniae, UniProt A0A411AKL6).
T1 construct: GST fusion from pGEX-6P-1-tmexD1 (BamHI/XhoI), E. coli BL21(DE3); plasmid-borne gene of tmexCD1-toprJ1
The experiment is described as follows: circular dichroism, secondary structure change. The settings on record: harmaline 128 mg/L; 190-260 nm; indirect evidence of binding. Background: Circular dichroism is the unequal absorption of left and right circularly polarised light.

SMILES strings stand for the structures.

T1 sequence (A0A411AKL6 entry or part of it): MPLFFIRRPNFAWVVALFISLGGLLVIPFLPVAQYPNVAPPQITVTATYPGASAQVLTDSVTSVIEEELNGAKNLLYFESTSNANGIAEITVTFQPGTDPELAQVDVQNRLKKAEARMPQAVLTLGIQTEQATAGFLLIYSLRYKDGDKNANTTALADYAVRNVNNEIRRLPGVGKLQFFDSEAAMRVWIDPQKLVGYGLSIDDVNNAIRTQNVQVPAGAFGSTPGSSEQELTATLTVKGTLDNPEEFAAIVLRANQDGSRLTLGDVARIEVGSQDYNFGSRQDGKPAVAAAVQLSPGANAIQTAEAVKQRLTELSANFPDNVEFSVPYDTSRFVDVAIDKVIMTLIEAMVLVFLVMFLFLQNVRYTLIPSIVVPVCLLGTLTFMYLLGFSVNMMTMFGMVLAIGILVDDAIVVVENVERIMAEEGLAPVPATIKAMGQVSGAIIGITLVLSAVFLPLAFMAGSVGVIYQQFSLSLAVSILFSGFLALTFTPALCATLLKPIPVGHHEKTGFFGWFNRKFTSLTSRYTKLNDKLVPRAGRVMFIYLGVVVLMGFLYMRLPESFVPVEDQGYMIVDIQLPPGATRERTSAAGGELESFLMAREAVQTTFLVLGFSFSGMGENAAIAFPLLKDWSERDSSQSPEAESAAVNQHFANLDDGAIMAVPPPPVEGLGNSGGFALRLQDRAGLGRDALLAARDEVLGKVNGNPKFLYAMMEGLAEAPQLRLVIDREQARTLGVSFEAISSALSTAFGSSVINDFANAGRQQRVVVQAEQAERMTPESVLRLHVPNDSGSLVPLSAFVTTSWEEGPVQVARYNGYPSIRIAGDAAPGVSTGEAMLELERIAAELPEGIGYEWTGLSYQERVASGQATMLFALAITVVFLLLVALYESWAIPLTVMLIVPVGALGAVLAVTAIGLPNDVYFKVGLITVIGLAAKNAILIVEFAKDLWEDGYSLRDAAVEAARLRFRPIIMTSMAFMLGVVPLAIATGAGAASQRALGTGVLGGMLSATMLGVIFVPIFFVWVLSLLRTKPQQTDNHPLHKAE

With `COc1ccc2c3c([nH]c2c1)C(C)=NCC3` [harmaline], the “circular dichroism, secondary structure change” value was “TMexD1 (Fig. 7C and D) and TOprJ1 (Fig. 7E and F) were observed by harmaline treatment”.

The values above are taken from publication PMC11127330, “Repurposing harmaline as a novel approach to reverse tmexCD1-toprJ1-mediated tigecycline resistance against klebsiella pneumoniae infections” (Microbial Cell Factories, 2024).
